Article PMC6026317, “Molecular elements in FGF19 and FGF21 defining KLB/FGFR activity and specificity” (Molecular Metabolism, 2018)

Columns and labels:
[1] = tested on: human FGFR4-1c chimera/KLB; experiment: Agonist pERK AlphaScreen assay in BaF3 cells, FGFR4-1c chimera/KLB; type: cell-based; conditions: BaF3 cells co-expressing KLB and FGFR4-1c chimera; 15 min at 37° C; n = 3
Description: (§1) For generating receptor specific BaF3 cell line, human FGFR1c cDNA was cloned into pMXs-IRES-Puro vector (Cell Biolabs) to generate the expression plasmid pMX-FGFR1c-IRES-Puro. Human FGFR4 sequence was re-engineered to enhance signaling by constructing chimeric cDNA encoding the extracellular region of FGFR4 fused to the intracellular region and tyrosine kinase domain of FGFR1c, and the chimeric sequence was cloned into pMX-IRES-Puro vector to generate the expression plasmid pMX-chimeric FGFR4-1c-IRES-Puro. Human KLB cDNA was cloned into pMXs-IRES-Neo vector (Cell Biolabs) to generate expression plasmid pMX-KLB-IRES-Neo. BaF3 cells were transfected with pMX-FGFR1c-IRES-Puro and pMX- FGFR4-1c chimera-IRES-Puro expression plasmids respectively by electroporation (Xcell machine, Bio-Rad, 950 μF, 370V). Cells were selected with media containing 1 μg/ml Puromycin for 10–12 days. […]
(§2) 293T HEK cells expressing KLB (or KL) or Hep3B cells were plated to 5–6 x 10^4 cells/well density in 96-well cell culture plate coated with poly-D-Lysine (Corning). […] Phosphorylated ERK1/2 (pERK) levels were subsequently recorded by EnSpire Alpha or Envision Multilabel plate reader (Perkin Elmer). […]
(§3) All cellular phosphorylation data were analyzed using 3-parameter non-linear regression curve in GraphPad Prism 7. […]

human FGFR1/KLB = experiment: Agonist pERK AlphaScreen assay in BaF3 cells, FGFR1/KLB; type: cell-based; conditions: BaF3 cells co-expressing KLB and FGFR1; 15 min at 37° C; n = 3
Description: as §1, §2, §3

293/KLB cells = experiment: Agonist pERK AlphaLISA assay in 293/KLB cells; type: cell-based, human; conditions: 10 min at 37° C, n = 3
Method: (§4) 293T HEK cells expressing KLB (or KL) or Hep3B cells were plated to 5–6 x 10^4 cells/well density in 96-well cell culture plate coated with poly-D-Lysine (Corning). The cells were serum starved for four hours in 0.1% BSA fraction V (ThermoFisher) containing media prior to treatment with protein and/or an antagonist peptide at the mentioned concentrations for 10 min at 37° C. For the antagonist assays, a chosen fixed dose within the range of 0.8–30 nM (depending on the cell type) of FGF21 or FGF19 stimulant was added to all the wells. BaF3 cells expressing human KLB/FGFR1c or human KLB/FGFR4-1c chimera were seeded at 5 × 10^5 cells/well density in 96-well cell culture plate and serum-starved overnight. FGF21/19 analogs were diluted in 0.02% Tween-20 containing RPMI1640 medium and the cells were treated for 15 min at 37° C. Following the respective cell treatments, the cells were lysed (with lysis buffer provided in the kit) for 10 min at room temperature on a shaker and the lysate was mixed with reaction mixture (consisting of reaction buffer, activation buffer, acceptor and donor beads provided in the kit). Phosphorylated ERK1/2 (pERK) levels were subsequently recorded by EnSpire Alpha or Envision Multilabel plate reader (Perkin Elmer). The cell assays corresponding to 293/KLB or Hep3B cells were carried out with AlphaLISA SureFire Ultra pERK1/2 (Thr 202/Tyr204) kit (Perkin Elmer), and BaF3 cells were done using AlphaScreen pERK1/2 (Thr202/Tyr204) kit (Perkin Elmer).
All cellular phosphorylation data were analyzed using 3-parameter non-linear regression curve in GraphPad Prism 7. Graphs are represented as relative maximal (100%) response of the positive control. All other test analog signals were adjusted accordingly as % values. […] Each peptide and protein analog was tested in triplicates in three independent experiments (n = 3), and normalized graphs plotted are expressed as mean ± SD unless otherwise noted.

Hep3B cells = experiment: Agonist pERK AlphaLISA assay in Hep3B cells; type: cell-based, human; conditions: 10 min at 37° C, n = 3
Method: as §4, with “Following the respective cell treatments, the cells were lysed (with lysis buffer provided in the kit) for 10 min at room temperature on a shaker and the lysate was mixed with reaction mixture (consisting of reaction buffer, activation buffer, acceptor and donor beads provided in the kit).” left out, “The cell assays corresponding to 293/KLB or Hep3B cells were carried out with AlphaLISA SureFire Ultra pERK1/2 (Thr 202/Tyr204) kit (Perkin Elmer), and BaF3 cells were done using AlphaScreen pERK1/2 (Thr202/Tyr204) kit (Perkin Elmer).” left out
All cellular phosphorylation data were analyzed using 3-parameter non-linear regression curve in GraphPad Prism 7. […] Each peptide and protein analog was tested in triplicates in three independent experiments (n = 3), and normalized graphs plotted are expressed as mean ± SD unless otherwise noted.

FGF19,A^194: FGF19 analog with single C-terminal lysine substitution to alanine
pERK agonist activity, in words [1]: no change in bioactivity
pERK agonist activity, in words (human FGFR1/KLB): enhanced signaling at the FGFR1/KLB complex by approximately ten-fold
pERK agonist activity, in words (293/KLB cells): nearly tenfold more active than FGF19
pERK agonist activity, in words (Hep3B cells): comparable
